# Source: patent publication US20100029657A1, “Bridged, Bicyclic Heterocyclic or Spiro Bicyclic Heterocyclic Derivatives of Pyrazolo[1, 5-A]Pyrimidines, Methods for Preparation and Uses Thereof” (Wyeth, priority 2008, published 2010)
# Target: T1, Flag/GST-tagged recombinant human B-Raf (Homo sapiens, UniProt P15056)
# T1 construct: Flag; GST; made in house; host or cells: Sf9 insect cells (B-Raf); E. coli (MEK1-GST)
# Test: B-Raf kinase assay (phosphorylation of GST-MEK1, phospho-MEK1 antibody/Europium detection)
# Format: biochemical
# Settings: B-Raf IC50 Data for compounds of Formula A; read-out: Mean IC50
# How it was run: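 Percent inhibition was calculated at each compound concentration from Europium time-resolved fluorescence (anti-phospho-MEK1, then Eu-conjugated anti-rabbit) after GST capture. The upstream kinase step used GST-MEK1 with 0.2 nM B-Raf for 45 min at room temperature in MOPS buffer, pH 7.2. It was started with a cocktail of 200 μM ATP and 40 mM MgCl2.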
# T1 sequence (P15056 whole entry): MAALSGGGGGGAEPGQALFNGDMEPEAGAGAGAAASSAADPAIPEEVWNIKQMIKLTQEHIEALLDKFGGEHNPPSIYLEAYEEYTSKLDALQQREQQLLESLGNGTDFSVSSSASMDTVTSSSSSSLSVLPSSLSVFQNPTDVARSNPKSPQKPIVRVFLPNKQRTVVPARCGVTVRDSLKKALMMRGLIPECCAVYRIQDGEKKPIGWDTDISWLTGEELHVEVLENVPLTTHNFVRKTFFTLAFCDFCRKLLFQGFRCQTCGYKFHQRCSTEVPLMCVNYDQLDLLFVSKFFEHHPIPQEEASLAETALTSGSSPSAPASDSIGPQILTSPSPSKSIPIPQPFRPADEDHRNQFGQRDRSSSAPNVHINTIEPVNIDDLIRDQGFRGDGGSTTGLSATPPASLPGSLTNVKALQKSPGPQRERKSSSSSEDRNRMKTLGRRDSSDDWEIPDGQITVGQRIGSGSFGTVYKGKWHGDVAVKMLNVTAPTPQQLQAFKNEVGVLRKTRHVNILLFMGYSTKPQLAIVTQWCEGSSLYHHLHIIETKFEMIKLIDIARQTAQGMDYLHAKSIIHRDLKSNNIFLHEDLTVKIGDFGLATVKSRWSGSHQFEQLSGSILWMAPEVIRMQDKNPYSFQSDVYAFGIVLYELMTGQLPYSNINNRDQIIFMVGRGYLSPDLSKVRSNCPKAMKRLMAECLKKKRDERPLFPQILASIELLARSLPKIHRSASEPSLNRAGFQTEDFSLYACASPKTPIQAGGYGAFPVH
row,Compound,IC50
1,"C[N+]1([O-])C[C@@H]2C[C@H]1CN2c1cc(F)c(-c2ccnc3c(-c4cccc5[nH]ncc45)c(-c4ccncc4)nn23)c(F)c1 (stereo partly drawn) [Example 192, 7-{2,6-difluoro-4-[(1S,4S)-5-methyl-5-oxido-2,5-diazabicyclo[2.2.1]hept-2-yl]phenyl}-3-(1H-indazol-4-yl)-2-pyridin-4-ylpyrazolo[1,5-a]pyrimidine]",0.4 nM
2,"c1cc(-c2c(-c3ccncc3)nn3c(-c4coc(CN5C[C@@H]6C[C@H]5CO6)c4)ccnc23)c2cn[nH]c2c1 [Example 193, 3-(1H-indazol-4-yl)-7-{5-[(1S,4S)-2-oxa-5-azabicyclo[2.2.1]hept-5-ylmethyl]furan-3-yl}-2-pyridin-4-ylpyrazolo[1,5-a]pyrimidine]",18.8 nM
3,"CC(C)(C)OC(=O)N1C[C@@H]2C[C@H]1CN2Cc1cc(-c2ccnc3c(-c4cccc5[nH]ncc45)c(-c4ccncc4)nn23)co1 [Example 194, tert-butyl (1S,4S)-5-({4-[3-(1H-indazol-4-yl)-2-pyridin-4-ylpyrazolo[1,5-a]pyrimidin-7-yl]furan-2-yl}methyl)-2,5-diazabicyclo[2.2.1]heptane-2-carboxylate]",9.1 nM
4,"c1cc(-c2c(-c3ccncc3)nn3c(-c4coc(CN5C[C@@H]6C[C@H]5CN6)c4)ccnc23)c2cn[nH]c2c1 [Example 195, 7-{5-[(1S,4S)-2,5-diazabicyclo[2.2.1]hept-2-ylmethyl]furan-3-yl}-3-(1H-indazol-4-yl)-2-pyridin-4-ylpyrazolo[1,5-a]pyrimidine]",13 nM
5,"CC(C)(C)OC(=O)N1C[C@@H]2C[C@H]1CN2Cc1ccc(-c2ccnc3c(-c4cccc5[nH]ncc45)c(-c4ccncc4)nn23)s1 [Example 196, tert-butyl (1S,4S)-5-({5-[3-(1H-indazol-4-yl)-2-pyridin-4-ylpyrazolo[1,5-a]pyrimidin-7-yl]thiophen-2-yl}methyl)-2,5-diazabicyclo[2.2.1]heptane-2-carboxylate]",11.5 nM
6,"c1cc(-c2c(-c3ccncc3)nn3c(-c4ccc(CN5C[C@@H]6C[C@H]5CO6)s4)ccnc23)c2cn[nH]c2c1 [Example 197, 3-(1H-indazol-4-yl)-7-{5-[(1S,4S)-2-oxa-5-azabicyclo[2.2.1]hept-5-ylmethyl]thiophen-2-yl}-2-pyridin-4-ylpyrazolo[1,5-a]pyrimidine]",5.7 nM
7,"c1cc(-c2c(-c3ccncc3)nn3c(-c4ccc(CN5C[C@@H]6C[C@H]5CN6)s4)ccnc23)c2cn[nH]c2c1 [Example 198, 7-{5-[(1S,4S)-2,5-diazabicyclo[2.2.1]hept-2-ylmethyl]thiophen-2-yl}-3-(1H-indazol-4-yl)-2-pyridin-4-ylpyrazolo[1,5-a]pyrimidine]",3.6 nM
8,"CCOC(=O)N1[C@@H]2CC[C@H]1C[C@@H](c1c(C)cnc3c(-c4cccc5[nH]ncc45)c(-c4ccncc4)nn13)C2 [Example 199, ethyl (3-endo)-3-[3-(1H-indazol-4-yl)-6-methyl-2-pyridin-4-ylpyrazolo[1,5-a]pyrimidin-7-yl]-8-azabicyclo[3.2.1]octane-8-carboxylate]",5.5 nM
9,"c1cc(-c2c(-c3ccncc3)nn3c(-c4ccc(N5CC6CCC(C5)O6)nc4)ccnc23)c2cn[nH]c2c1 [Example 200, 3-(1H-indazol-4-yl)-7-[6-(8-oxa-3-azabicyclo[3.2.1]oct-3-yl)pyridin-3-yl]-2-pyridin-4-ylpyrazolo[1,5-a]pyrimidine]",5.8 nM
10,"c1cc(-c2c(-c3ccncc3)nn3c(-c4ccc(N5C[C@@H]6C[C@H]5CO6)nc4)ccnc23)c2cn[nH]c2c1 [Example 201, 3-(1H-indazol-4-yl)-7-{6-[(1S,4S)-2-oxa-5-azabicyclo[2.2.1]hept-5-yl]pyridin-3-yl}-2-pyridin-4-ylpyrazolo[1,5-a]pyrimidine]",8.4 nM
11,"CC(C)(C)OC(=O)N1C[C@@H]2C[C@H]1CN2Cc1cccc(-c2ccnc3c(-c4cccc5[nH]ncc45)c(-c4ccncc4)nn23)c1 [Example 202, tert-butyl (1S,4S)-5-{3-[3-(1H-indazol-4-yl)-2-pyridin-4-ylpyrazolo[1,5-a]pyrimidin-7-yl]benzyl}-2,5-diazabicyclo[2.2.1]heptane-2-carboxylate]",> 100 nM
12,"Ethyl 3-[3-(2-oxo-2,3-dihydro-1H-pyrrolo[2,3-b]pyridin-4-yl)-2-pyridin-4-ylpyrazolo[1,5-a]pyrimidin-7-yl-8-azabicyclo[3.2.1]octane-8-carboxylate [Example 86]",270 nM

# Other lines, results leading:
row,IC50,Compound
1,12 nM,"CC(C)(C)OC(=O)N1C[C@@H]2C[C@H]1CN2Cc1ccc(-c2ccnc3c(-c4cccc5[nH]ncc45)c(-c4ccncc4)nn23)cc1 [Example 203, tert-butyl (1S,4S)-5-{4-[3-(1H-indazol-4-yl)-2-pyridin-4-ylpyrazolo[1,5-a]pyrimidin-7-yl]benzyl}-2,5-diazabicyclo[2.2.1]heptane-2-carboxylate]"
2,10 nM,"c1cc(-c2c(-c3ccncc3)nn3c(-c4ccc(CN5C[C@@H]6C[C@H]5CO6)cc4)ccnc23)c2cn[nH]c2c1 [Example 204, 3-(1H-indazol-4-yl)-7-{4-[(1S,4S)-2-oxa-5-azabicyclo[2.2.1]hept-5-ylmethyl]phenyl}-2-pyridin-4-ylpyrazolo[1,5-a]pyrimidine]"
3,0.35 nM,"Fc1cc(CN2C[C@@H]3C[C@H]2CN3)ccc1-c1ccnc2c(-c3cccc4[nH]ncc34)c(-c3ccncc3)nn12 [Example 205, 7-{4-[(1S,4S)-2,5-diazabicyclo[2.2.1]hept-2-ylmethyl]-2-fluorophenyl}-3-(1H-indazol-4-yl)-2-pyridin-4-ylpyrazolo[1,5-a]pyrimidine]"
4,1.5 nM,"Fc1cc(CN2C[C@@H]3C[C@H]2CO3)ccc1-c1ccnc2c(-c3cccc4[nH]ncc34)c(-c3ccncc3)nn12 [Example 206, 7-{2-fluoro-4-[(1S,4S)-2-oxa-5-azabicyclo[2.2.1]hept-5-ylmethyl]phenyl}-3-(1H-indazol-4-yl)-2-pyridin-4-ylpyrazolo[1,5-a]pyrimidine]"
5,0.5 nM,"Fc1cc(CN2C[C@H]3C[C@@H]2CO3)ccc1-c1ccnc2c(-c3cccc4[nH]ncc34)c(-c3ccncc3)nn12 [Example 207, 7-{2-fluoro-4-[(1R,4R)-2-oxa-5-azabicyclo[2.2.1]hept-5-ylmethyl]phenyl}-3-(1H-indazol-4-yl)-2-pyridin-4-ylpyrazolo[1,5-a]pyrimidine]"
6,42 nM,"c1cc(CN2C[C@@H]3C[C@H]2CN3)cc(-c2ccnc3c(-c4cccc5[nH]ncc45)c(-c4ccncc4)nn23)c1 [Example 208, 7-{3-[(1S,4S)-2,5-diazabicyclo[2.2.1]hept-2-ylmethyl]phenyl}-3-(1H-indazol-4-yl)-2-pyridin-4-ylpyrazolo[1,5-a]pyrimidine]"
7,0.6 nM,"c1cc(-c2c(-c3ccncc3)nn3c(-c4ccc(CN5C[C@@H]6C[C@H]5CN6)cc4)ccnc23)c2cn[nH]c2c1 [Example 209, 7-{4-[(1S,4S)-2,5-diazabicyclo[2.2.1]hept-2-ylmethyl]phenyl}-3-(1H-indazol-4-yl)-2-pyridin-4-ylpyrazolo[1,5-a]pyrimidine]"
8,0.7 nM,"Fc1cc(CN2C3COCC2COC3)ccc1-c1ccnc2c(-c3cccc4[nH]ncc34)c(-c3ccncc3)nn12 [Example 210, 9-{3-fluoro-4-[3-(1H-indazol-4-yl)-2-pyridin-4-ylpyrazolo[1,5-a]pyrimidin-7-yl]benzyl}-3,7-dioxa-9-azabicyclo[3.3.1]nonane]"
